Test results published in patent US20220196635A1, “Fibrosis Assay” (Georgia Tech Research Corporation, priority 2020, published 2022).

Legend:
[1] = test system: human primary lung fibroblasts (NHLF, IPF) in fibrin micro-scaffolds; test: Contracting scar-in-a-drop fibroplasia assay (final projected area of cell-ECM spheroids); type: cell-based
Description: Human primary lung fibroblasts were used in all experiments presented in this paper. Unless otherwise noted, experiments utilized normal human lung fibroblasts (NHLF B lot #0000580583; Lonza) from a person with a history of smoking. For experiments evaluating donor variability, the following cells were utilized: NHLF A (NHLF lot #0000608197; Lonza) from a person, IPF A (IPF lot #0000627840; Lonza) from a person, and IPF B (IPF lot #6F5002; Lonza) from a person. All cells were cultured in fibroblast growth media (FGM; Lonza). Cells were passaged at 80-90% confluence and were sub-cultured in 1:3 ratios by trypsinization. When at the desired confluence, cells were washed with PBS and 0.05% trypsin solution was added to the flask. Cells were incubated for 2 min, and then harvested and centrifuged ([…], 5 min) in a conical tube. The supernatant was aspirated and the cell pellet was re-suspended in FBS-free culture media. When used in fibrin degradation experiments, cells were re-suspended at 2× the final desired concentration (2500 cells/ul unless otherwise indicated). To promote collagen production and contraction in addition to fibrin degradation, serum (bovine or human) were added at 2% or higher up to about 10%. Higher cell densities (about 2500 cells/ul and higher up to about 10,000 cells/ul) also promote collagen production. All experiments were conducted with cells at or below passage 8 except for high passage experiments conducted at passage 12. In all experiments, media was changed every 48 hours and any media additives (plasminogen, TGF-β1, drugs, etc.,) were included.
ATPS printing of fibrin micro-scaffolds has previously described above. Briefly, working solutions of PEG with 0.1 U/mL of thrombin were warmed to 37° C. and pipetted into a 96-well plate. For production of droplets, fibrinogen-DEX solutions with cell suspension were maintained at 37° C. and 4 μl per assay (unless otherwise noted) was pipetted directly into the PEG-thrombin media using a semi-automated repeater pipette (Repeater E3X; Eppendorf). Following dispensing of the DEX phase, the plates were placed in an ambient air incubator at 37° C. for 30 min to allow the thrombin to enzymatically crosslink the fibrinogen into a fibrin matrix (FIG. 6A). The PEG-enriched media was removed using a 12-channel micropipette and replaced with 100 μl of fully supplemented media in each well. When applicable, this media addition was supplemented with stimuli as detailed in example 17 below. For the duration of each experiment, assay plates were imaged every 2 hours at 4× with an automated cell culture monitoring system (Incucyte S3; Sartorius). As the assay proceeded, the fibroblasts progressively remodeled the fibrin scaffold as illustrated in FIG. 6C.
After each experiment, the final projected areas of the cell-ECM spheroids were determined from brightfield images taken at the final time point using a benchtop imaging system (2× objective; EVOS M7000; ThermoFisher). These images were then segmented through a process of pixel classification, thresholding, and morphological filtering in order to isolate the cell-ECM construct area from the background.
Pixel classification implemented Ilastic, a freely available image classification tool developed by the European Molecular Biology Laboratory. Ilastik's pixel classification utility implements a random forest classifier for quick and robust segmentation. In order to train the classifier, 10 characteristic images were selected to include different stages of ECM remodeling. In this step, each individual pixel is assigned a probability for belonging to layers for the background or the cell-ECM construct. Ilastik enables interactive training of the random forest classifier via user annotations of the training images. […]

[2] = test system: NHLF cells and diseased IPF cells (primary human lung fibroblasts) in fibrin scaffold; test: Microscale cell-mediated fibrinolysis assay (ATPS-printed fibroblast-laden fibrin scaffolds, brightfield pixel intensity); type: cell-based; conditions: for impact on fibroblast-mediated fibrinolysis: 400 μM pirfenidone, 0.4 μM nintedanib, 20 μM diethyl-pythiDC, NHLF and IPF cells; for rate of cell-mediated fibrinolysis (50% degradation time): 100 μM hydrogen peroxide
Description: A stock solution of DEX (20% w/w dextran T500; Sigma) was prepared in phosphate buffered saline (PBS) on a rocker overnight. A stock solution of PEG (6% w/w, 35 k MW; Sigma) was prepared in fully supplemented culture media with 10% deionized water to balance osmolality. Both stock solutions were passed through a 0.22 um sterilizing syringe filter before storage. PEG working solutions were stored for up to 2 weeks at 4° C. Thrombin (Human Alpha Thrombin; Enzyme Research Labs) was also added to the PEG solution at a concentration of 0.1 U/mL immediately preceding experiments. Fibrinogen-DEX solutions were prepared by diluting fibrinogen stock solution (human fibrinogen 3; Enzyme Research Labs) to a final concentration of 4 mg/mL in a sterile solution of 4% 10×DMEM, 15% DEX stock solution (to a final concentration of 3% dextran), and 50% cell suspension in growth media. For all experiments excluding cell concentration evaluation, the cell suspension was diluted for 1000 cells per microliter in the final fibrinogen-DEX solution.
Normal human lung fibroblasts (NHLF lot #0000580583; […] Cells were passaged at 80-90% confluence and were sub-cultured in 1:3 ratios by trypsinization. When at the desired confluence, cells were washed with PBS and 0.05% trypsin solution was added to the flask. Cells were incubated for 2 min, diluted with fibroblast growth media, and then harvested and centrifuged (200× g, 5 min) in a conical tube. The supernatant was aspirated and the cell pellet was re-suspended in serum-free culture media. When used in fibrin degradation experiments, cells were re-suspended at 2× the final desired concentration (1000 cells/ul unless otherwise indicated). All experiments were conducted with cells at or below passage 12. In all experiments, media was changed every 48 hours and any media additives (plasminogen, TGF-β1, drugs, etc.) were included.
Working solutions of PEG with 0.1 U/mL of thrombin were warmed to 37° C. and pipetted into a 96-well plate. For production of droplets, fibrinogen-DEX solutions with cell suspension were maintained at 37° C. and pipetted directly into the PEG-thrombin media using either a manual pipette or a semi-automated 96-channel pipette (Viaflo-96; Integra). All assays utilized a volume of 1 μl unless otherwise noted. Following dispensing of the DEX phase, the plates were placed in an incubator at 37° C. for 30 min to allow the thrombin to enzymatically crosslink the fibrinogen into a fibrin matrix (FIG. 1A). The PEG-enriched media was then washed four times by removing, then replacing half of the media with PEG-free media. When applicable, the final media addition was supplemented with stimuli as detailed in Example 5 below. For the duration of each experiment, assay plates were imaged every 2 hours at 4× with an automated cell culture monitoring system (Incucyte S3; Essen Biosystems). After one day of culture, plasminogen (50 μg/mL) (Human Glu-Plasminogen; Enzyme Research Labs) was added as a 10× concentrated solution to each well in order to initiate assay degradation (FIG. 1B), unless otherwise noted for specific conditions. Fresh plasminogen was included with each subsequent media addition. Positive controls with active plasmin (1 U/ml) (Human Plasmin; Enzyme Research Labs) and negative controls without plasminogen were included in each experiment. As cells activated plasminogen, the fibrin scaffold progressively degraded as illustrated in FIG. 1C.
After each experiment, brightfield images for every time point were downloaded in jpeg format from the automated cell culture monitoring system. Python's OpenCV library was implemented for the masking approach illustrated in FIG. 2A. First, a threshold was set at 50% of the maximum intensity (128 for 8-bit integer pixel values) in order to isolate the darker pixels of semi-opaque fibrin hydrogel from the background of the image. A closing morphological filter with a 25×25 kernel was then applied to each mask in order to remove noise. […]

[3] = TGF-β1 treated (2 ng/mL), NHLF and IPF cells, 10 μM TM5275, 500 μM pirfenidone

## O=C(COCC(=O)N1CCN(C(c2ccccc2)c2ccccc2)CC1)Nc1ccc(Cl)cc1C(=O)O [TM5275]
[1]; [3]
  final area of spheroids: decreased the spheroid area
[1]; conditions that omitted TGF-β1, 10 μM TM5275
  spheroid area: not in conditions that omitted TGF-β1

## CCOC(=O)c1ccc(-c2ncc(C(=O)OCC)s2)nc1 [diethyl-pythiDC]
[2]
  impact on fibroblast-mediated fibrinolysis: significantly (P<0.05) delayed fibrinolysis

## OO [hydrogen peroxide]
[2]; conditions that included TGF-β1 (2 ng/ml)
  rate of cell-mediated fibrinolysis (50% degradation time): no significant difference
[2]; no TGF-β1
  rate of cell-mediated fibrinolysis (50% degradation time): highly significant decreases in the rates of fibrinolysis

## COC(=O)c1ccc2c(c1)NC(=O)/C2=C(\Nc1ccc(N(C)C(=O)CN2CCN(C)CC2)cc1)c1ccccc1 [nintedanib]
[2]
  impact on fibroblast-mediated fibrinolysis: did not show a significant impact on fibrinolysis
[1]; all conditions (with and without TGF-β1; NHLF and IPF cells), 1 μM nintedanib
  final area of spheroids: significant decreases in final area for all conditions
[1]; nintedanib, 2 normal and 2 IPF donors, one IPF donor not statistically significant (p<0.3)
  final projected area, fibroblast donor variability: reduced the final projected area

## Cc1ccc(=O)n(-c2ccccc2)c1 [pirfenidone]
[2]
  impact on fibroblast-mediated fibrinolysis: did not show a significant impact on fibrinolysis
[1]; [3]
  final area of spheroids: significant decrease in final area

B1: plasmin: Human Plasmin (Enzyme Research Labs), positive control for fibrin degradation (protein, UniProt P00747 20-580; P00747 581-810, looked up)
Plasmin heavy chain A: EPLDDYVNTQGASLFSVTKKQLGAGSIEECAAKCEEDEEFTCRAFQYHSKEQQCVIMAENRKSSIIIRMRDVVLFEKKVYLSECKTGNGKNYRGTMSKTKNGITCQKWSSTSPHRPRFSPATHPSEGLEENYCRNPDNDPQGPWCYTTDPEKRYDYCDILECEEECMHCSGENYDGKISKTMSGLECQAWDSQSPHAHGYIPSKFPNKNLKKNYCRNPDRELRPWCFTTDPNKRWELCDIPRCTTPPPSSGPTYQCLKGTGENYRGNVAVTVSGHTCQHWSAQTPHTHNRTPENFPCKNLDENYCRNPDGKRAPWCHTTNSQVRWEYCKIPSCDSSPVSTEQLAPTAPPELTPVVQDCYHGDGQSYRGTSSTTTTGKKCQSWSSMTPHRHQKTPENYPNAGLTMNYCRNPDADKGPWCFTTDPSVRWEYCNLKKCSGTEASVVAPPPVVLLPDVETPSEEDCMFGNGKGYRGKRATTVTGTPCQDWAAQEPHRHSIFTPETNPRAGLEKNYCRNPDGDVGGPWCYTTNPRKLYDYCDVPQCAAPSFDCGKPQVEPKKCPGR
Plasmin light chain B: VVGGCVAHPHSWPWQVSLRTRFGMHFCGGTLISPEWVLTAAHCLEKSPRPSSYKVILGAHQEVNLEPHVQEIEVSRLFLEPTRKDIALLKLSSPAVITDKVIPACLPSPNYVVADRTECFITGWGETQGTFGAGLLKEAQLPVIENKVCNRYEFLNGRVQSTELCAGHLAGGTDSCQGDSGGPLVCFEKDKYILQGVTSWGLGCARPNKPGVYVRVSRFVTWIEGVMRNN
modifications: Plasmin
notes: Human Plasmin (Enzyme Research Labs), positive control for fibrin degradation
[2]; exogenous plasmin 1 U/ml
  matrix degradation, positive control: rapid matrix degradation
